Measured values from article PMC12311606, “An efficient brain delivery system co-loaded with multiple components of Salvia miltiorrhiza for synergistic treatment of ischemic stroke” (Materials Today Bio, 2025).

Experiments:
[1] = In vitro drug release in 1 % SDS (dialysis, HPLC); type: physicochemical; conditions: release from W/HPDA/L, 1 % SDS pH 6.5–6.8
Description: Five compounds were measured by HPLC at 0.5, 1, 2, 4, 8, 12 and 24 h. In order to elucidate the release mechanism of W/HPDA/L, release kinetic models (Ritger-Peppas model) were employed to fit the data available.

[2] = Adsorption kinetic model fitting of the five components on the carrier; type: physicochemical; design: k, pseudo-first order: unit not given beside the values
Description: Preparation of W/HPDA/L nanoparticles: Briefly, 0.5 mL of TEOS were added over a stirred solution of 2 mL of NH3∙H2O solution in 100 mL of ethanol. The reaction mixture was vigorously stirred at room temperature for 3 h to obtain SiO2 nanoparticles. Then, 1.5 mL of APTES were dropped to the reaction mixture. Finally, SiO2-NH2 nanoparticles were collected by centrifugation at 10000 rpm for 10 min, then washed twice with ethanol and resuspended in ethanol for further use. As for the preparation of W@SiO2 nanoparticles, 1 mL of SiO2-NH2 nanoparticles and 4 mL of water components solution (1 mg RA and 12 mg SAB) were first mixed together. Under stirring for 12 h, the resultant W@SiO2 nanoparticles were acquired by centrifugation (10000 rpm, 10 min) and washed thrice with DI water. The total content of water-soluble in the supernatant (free RA and SAB) were determined by HPLC. W@SiO2 nanoparticles obtained by centrifugation were resuspended with Tris-HCl solution containing dopamine hydrochloride. PDA was prepared according to our precious report. This was followed by the addition of 2 mL of etching solution. Then, through centrifugation (12000 rpm, 5 min) and washing with ultrapure water three times, W/HPDA nanoparticles were acquired for later use. After dissolving 6 mg of lipid-soluble components (1 mg CPT, 2.5 mg TSI and 2.5 mg TSA) in 4 mL of ethanol, it was added to 1 mL of W/HPDA nanoparticles dispersed solution. After 12 h of stirring at room temperature, W/HPDA/L nanoparticles were collected by centrifugation and subsequently dispersed in water for further use. Similarly, HPDA was synthesized as previously described. 13 mg of water-soluble components solution (1 mg RA and 12 mg SAB) and 6 mg of lipid-soluble components (1 mg CPT, 2.5 mg TSI and 2.5 mg TSA) were dissolved in 4 mL PBS containing 0.1 % DMSO and added to 3 mL HPDA aqueous dispersion. The mixture was then stirred at room temperature for 12 h, centrifuged, and washed to obtain HPDA/WL nanoparticles. The total content of lipid-soluble in the supernatant (free CPT, TSI and TSA) were determined by HPLC.
An adsorption kinetic model was used to fit the effect of adsorption time on the adsorption performance of adsorbents, further speculating the mechanism of adsorption. The results of the adsorption kinetics of five components were fitted using the pseudo-first-order and pseudo-second-order model, respectively.

ZO-1 = ZO-1 tension by FRET-based tension probes in bEnd.3 cells; type: cell-based; conditions: 15 min treatment, then removal and 15 min observation
Description: (§1) 6 × 10^4 bEnd.3 cells were seeded in the donor chamber of 24-well transwell inserts. […] The viability of bEnd.3 cells following borneol treatment was assessed using the Cell Counting Kit-8 (CCK-8) assay. We added 0.9 mL of PBS-based assay medium to blank 24-well culture plates and 0.2 mL of borneol (0, 100, 400 μM) to the apical side of the BBB layers. TEER was measured at 5, 10, and 15 min. Additionally, 100 nm silica nanoparticles and sodium fluorescein at the same concentrations were administered at three time points. […] The intracellular tension of the tight junction protein ZO-1 was evaluated using fluorescence resonance energy transfer (FRET)-based tension probes and cpstFRET analysis, as previously described. bEnd.3 cells were transfected with ZO-1 probes and incubated with 1000 μg/mL geneticin. After treating the cells with borneol for 15 min, the borneol was removed, and observations continued for an additional 15 min. Cells treated with Hanks' solution served as the control group. The cell images were taken with × 63 oil lens on a confocal microscope (SP5; Leica, Wetzlar, Germany). The CFP/FRET ratio was calculated using the equation 1/E = cerulean donor/venus acceptor.

bEnd.3 cells [3] = test: Viability of bEnd.3 cells following borneol treatment (CCK-8); type: cell-based; conditions: 5 to 500 μmol/l
Description: as §1

bEnd.3 cells [4] = test: In vitro BBB permeability (bEnd.3 transwell model); type: cell-based; conditions: 100 and 400 μmol borneol
Description: as §1, with “TEER was measured at 5, 10, and 15 min.” left out, “cpstFRET” left out

Qe, pseudo-first order [2] [mg/g] | Qe, pseudo-second order [2] [mg/g] | Time at which maximum BBB permeability is reached (bEnd.3 cells [4]) [min] | SMILES | Ritger-Peppas release exponent n [1] | Ritger-Peppas release model coefficient (y = k t^n) [1] | k, pseudo-first order [2] | k, pseudo-second order [2] | ZO1 tension (CFP/FRET) (ZO-1) | Cytotoxic effects on bEnd.3 cells (bEnd.3 cells [3])
– | – | – | N[C@@H](CCC(=O)O)C(=O)O [Glu, Glutamate, reference compound] | – | – | – | – | increased and continued to rise even 15 min after Glu removal | –
6.23 | 7.78 | – | O=C(/C=C/c1ccc(O)c(O)c1)O[C@H](Cc1ccc(O)c(O)c1)C(=O)O [RA, rosmarinic acid] | n = 0.83 | y = 6.28t^n | 0.29 | 0.03 | – | –
18.27 | 21.95 | – | O=C(/C=C/c1ccc(O)c2c1[C@H](C(=O)O[C@H](Cc1ccc(O)c(O)c1)C(=O)O)[C@@H](c1ccc(O)c(O)c1)O2)O[C@H](Cc1ccc(O)c(O)c1)C(=O)O [SAB, salvianolic acid B] | n = 0.78 | y = 8.41t^n | 0.27 | 0.01 | – | –
4.14 | 4.74 | – | Cc1coc2c1C(=O)C(=O)c1c-2ccc2c1CCCC2(C)C [TSA, tanshinone IIA] | n = 0.37 | y = 24.68t^n | 0.89 | 0.21 | – | –
4.50 | 5.21 | – | Cc1coc2c1C(=O)C(=O)c1c-2ccc2c(C)cccc12 [TSI, tanshinone I] | n = 0.35 | y = 27.02t^n | 0.53 | 0.16 | – | –
– | – | 10 | CC1(C)C2CCC1(C)C(O)C2 (stereo not shown) [borneol] | – | – | – | – | increased but decreased after 15 min of borneol removal | no cytotoxic effects

SMILES | Qe, pseudo-first order [2] [mg/g] | Qe, pseudo-second order [2] [mg/g] | Time at which maximum BBB permeability is reached (bEnd.3 cells [4]) [min] | Ritger-Peppas release exponent n [1] | Ritger-Peppas release model coefficient (y = k t^n) [1] | k, pseudo-first order [2] | k, pseudo-second order [2] | ZO1 tension (CFP/FRET) (ZO-1) | Cytotoxic effects on bEnd.3 cells (bEnd.3 cells [3])
C[C@H]1COC2=C1C(=O)C(=O)c1c2ccc2c1CCCC2(C)C [CPT, cryptotanshinone] | 4.60 | 5.06 | – | n = 0.39 | y = 19.26t^n | 0.76 | 0.14 | – | –
